{
  "source": "patent US20260263340A1",
  "about": "“Cosmetic Products and Cleaning Products Stabilized Against Microbial Attack” (Thor GmbH, priority 2023, published 2026)",
  "key": {"bacteria mixture 1": {"system": "bacteria mixture 1", "assay": "Repeated-inoculation microbiological stress test of all-purpose cleaner, bacteria mixture 1", "assay_type": "cell-based", "design": "key to Bacterial growth after inoculation: 0: No growth; Minimal growth, 1 to 10 colonies visible over the entire streak; 2: Light growth, maximum 100 colonies; Moderate growth, maximum 300 to 400 colonies; Uniform growth, >400 colonies, single colonies still clearly recognizable; 5: Heavy growth, too many colonies to count, but no growth over the entire streak; 6: Full growth, barely any single colonies still apparent, growth over the entire streak", "conditions": "for Bacterial growth after inoculation: All-purpose cleaner, 6 d", "description": "(§1) The tested cleaning composition was an all-purpose cleaner without preservatives and having a pH of 7.7, the skin lotion was a body lotion without preservatives and having a pH of 7.1, and the shampoo was a hair shampoo without preservatives and having a pH of 6.9.\n(§2) The cleaning composition was admixed with particular concentrations of guanidine carbonate and guanidine hydrochloride and homogenized. The body lotion and the hair shampoo were each admixed and homogenized with guanidine hydrochloride and with octane-1,2-diol alone or in combination.\n(§3) The batches of the products thus obtained were inoculated repeatedly at particular intervals with bacteria mixtures or yeast mixtures that are used as standard for microbiological stress tests of industrial products or cosmetic products (bacteria mixture 1 and 2, yeast mixture 1 and 2).\n(§4) The inoculum was added to the respective sample in each inoculation at 2% (v/w) as a fresh cell suspension in a physiological saline solution (0.9% NaCl). The cell count of the inoculum added was 10^8-10^9/ml for the bacteria mixtures, 10^7-10^8/ml for the yeast mixtures, consisting in equal parts of the individual bacteria strains or yeast strains.\n(§5) The cell suspension of the bacteria mixtures was produced by growing the individual bacteria at 30° C. for 24 h in liquid culture on a shaker. The medium used to grow the bacteria from bacteria mixtures 1 and 2 was Müller-Hinton liquid medium. The bacteria from bacteria mixture 3 were grown in Müller-Hinton liquid medium that had been adjusted to pH 9.5 to 9.7 with an alkaline buffer solution beforehand. After growing, the individual liquid cultures were centrifuged, and the cells were resuspended in physiological saline solution. In order to adjust the mixtures to a total cell count of 10^8 to 10^9/ml, the individual bacteria suspensions, if necessary, were diluted accordingly before being combined with saline solution. The cell count of the inoculum suspensions was determined in each case by chamber counting.\n(§6) In the examples, the samples were inoculated three times at weekly intervals with the respective cell suspensions (2% v/w) and the evolution of the bacteria or yeasts was followed by a semiquantitative evaluation method. After each inoculation, microbial infestation in the samples was evaluated in each case after incubation at 30° C. for 6 to 7 days. For this purpose, an aliquot was taken from each sample after homogenization using a sterile plastic inoculation loop (10 μl) and streaked evenly on agar plates (bacteria mixture 1 and 2 on tryptic soy agar, bacteria mixture 3 on DSMZ 31 alkaline nutrient agar, Sabouraud glucose-agar in the case of yeasts). The streaked agar plates were then incubated at 30° C. for 48 hours (bacteria mixture 1 and 2) or 5 to 7 days (bacteria mixture 3), or at 25° C. for 72 hours (yeast mixtures). After incubation, the bacteria colonies or yeast colonies that have grown on the agar plates were visually evaluated and quantified according to the following scheme:\nInoculation 2% (w/v) with bacteria mixture 1, cell count 10^9/ml"}, "yeast mixture 1": {"system": "yeast mixture 1", "assay": "Repeated-inoculation microbiological stress test of all-purpose cleaner, yeast mixture 1", "assay_type": "cell-based", "design": "key to Yeast growth after inoculation: 0: No growth; Minimal growth, 1 to 10 colonies visible over the entire streak; 2: Light growth, maximum 100 colonies; Moderate growth, maximum 300 to 400 colonies; Uniform growth, >400 colonies, single colonies still clearly recognizable; 5: Heavy growth, too many colonies to count, but no growth over the entire streak; 6: Full growth, barely any single colonies still apparent, growth over the entire streak", "conditions": "for Yeast growth after inoculation: All-purpose cleaner, 6 d", "description": "as §1, §2, §3, §4\nThe cell suspension of the yeast mixtures was produced by growing the yeast strains on Sabouraud glucose-agar at 25° C. for 48 hours and washing down the cell lawn in each case with physiological saline solution (0.9% NaCl). Further steps for establishment of a cell count of the inoculum suspension of 10^7/ml to 10^8/ml were effected analogously to the production of the bacteria suspensions.\nas §6\nInoculation 2% (w/v) with yeast mixture 1, cell count 10^8/ml"}, "bacteria mixture 3": {"system": "bacteria mixture 3", "assay": "Repeated-inoculation microbiological stress test of all-purpose cleaner, bacteria mixture 3 (alkaliphilic bacteria)", "assay_type": "cell-based, Nesterenkonia spec.", "design": "key to Bacteria growth after inoculation: 0: No growth; Minimal growth, 1 to 10 colonies visible over the entire streak; 2: Light growth, maximum 100 colonies; Moderate growth, maximum 300 to 400 colonies; Uniform growth, >400 colonies, single colonies still clearly recognizable; 5: Heavy growth, too many colonies to count, but no growth over the entire streak; 6: Full growth, barely any single colonies still apparent, growth over the entire streak", "conditions": "for Bacteria growth after inoculation: All-purpose cleaner, 7 d", "description": "as §1, §2\nThe cleaning composition was additionally inoculated repeatedly at particular intervals with a special inoculum consisting of a mixture of alkaliphilic bacteria (bacteria mixture 3) that had been isolated from a bacterially contaminated cleaning composition having a pH of 9.8.\nas §4, §5, §6\nInoculation 2% (w/v) with bacteria mixture 3, cell count 10^9/ml"}, "[1]": {"conditions": "+1000 ppm guanidine carbonate (656 ppm guanidine) pH 9.3, 1. inoculation"}, "[2]": {"conditions": "+1000 ppm guanidine carbonate (656 ppm guanidine) pH 9.3, 2. inoculation"}, "[3]": {"conditions": "+1000 ppm guanidine carbonate (656 ppm guanidine) pH 9.3, 3. inoculation"}},
  "data": [
    {"smiles": "N=C(N)N.N=C(N)N.O=C(O)O", "note": "[guanidine carbonate]", "values": [
      {"measurement": "Bacterial growth after inoculation", "setting": "bacteria mixture 1; +1000 ppm guanidine carbonate (656 ppm guanidine) pH 9.2, 1. inoculation", "value": 0},
      {"measurement": "Bacterial growth after inoculation", "setting": "bacteria mixture 1; +1000 ppm guanidine carbonate (656 ppm guanidine) pH 9.2, 2. inoculation", "value": 0},
      {"measurement": "Bacterial growth after inoculation", "setting": "bacteria mixture 1; +1000 ppm guanidine carbonate (656 ppm guanidine) pH 9.2, 3. inoculation", "value": 5},
      {"measurement": "Bacterial growth after inoculation", "setting": "bacteria mixture 1; +1500 ppm guanidine carbonate (984 ppm guanidine) pH 9.5, 1. inoculation", "value": 0},
      {"measurement": "Bacterial growth after inoculation", "setting": "bacteria mixture 1; +1500 ppm guanidine carbonate (984 ppm guanidine) pH 9.5, 2. inoculation", "value": 0},
      {"measurement": "Bacterial growth after inoculation", "setting": "bacteria mixture 1; +1500 ppm guanidine carbonate (984 ppm guanidine) pH 9.5, 3. inoculation", "value": 0},
      {"measurement": "stability of the all-purpose cleaner to microbial infestation by bacteria", "setting": "bacteria mixture 1; addition of 659 ppm of guanidine in the form of guanidine carbonate at pH 9.2 or pH 9.5", "value": "distinct improvement in stability"},
      {"measurement": "Yeast growth after inoculation", "setting": "yeast mixture 1; [1]", "value": "1 (Minimal growth, 1 to 10 colonies visible over the entire streak)"},
      {"measurement": "Yeast growth after inoculation", "setting": "yeast mixture 1; [2]", "value": "1 (Minimal growth, 1 to 10 colonies visible over the entire streak)"},
      {"measurement": "Yeast growth after inoculation", "setting": "yeast mixture 1; [3]", "value": "3 (Moderate growth, maximum 300 to 400 colonies)"},
      {"measurement": "Yeast growth after inoculation", "setting": "yeast mixture 1; +2500 ppm guanidine carbonate (1640 ppm guanidine) pH 9.9, 1. inoculation", "value": 0},
      {"measurement": "Yeast growth after inoculation", "setting": "yeast mixture 1; +2500 ppm guanidine carbonate (1640 ppm guanidine) pH 9.9, 2. inoculation", "value": 0},
      {"measurement": "Yeast growth after inoculation", "setting": "yeast mixture 1; +2500 ppm guanidine carbonate (1640 ppm guanidine) pH 9.9, 3. inoculation", "value": 0},
      {"measurement": "Yeast growth after inoculation", "setting": "yeast mixture 1; +5000 ppm guanidine carbonate (3280 ppm guanidine) pH 10.4, 1. inoculation", "value": 0},
      {"measurement": "Yeast growth after inoculation", "setting": "yeast mixture 1; +5000 ppm guanidine carbonate (3280 ppm guanidine) pH 10.4, 2. inoculation", "value": 0},
      {"measurement": "Yeast growth after inoculation", "setting": "yeast mixture 1; +5000 ppm guanidine carbonate (3280 ppm guanidine) pH 10.4, 3. inoculation", "value": 0},
      {"measurement": "stability of the all-purpose cleaner to microbial infestation by yeasts", "setting": "yeast mixture 1; addition of 659 ppm of guanidine in the form of guanidine carbonate at pH 9.9", "value": "distinct improvement in stability"},
      {"measurement": "Bacteria growth after inoculation", "setting": "bacteria mixture 3; +500 ppm guanidine carbonate (328 ppm guanidine) pH 9.1, 1. inoculation", "value": 0},
      {"measurement": "Bacteria growth after inoculation", "setting": "bacteria mixture 3; +500 ppm guanidine carbonate (328 ppm guanidine) pH 9.1, 2. inoculation", "value": "2 (Light growth, maximum 100 colonies)"},
      {"measurement": "Bacteria growth after inoculation", "setting": "bacteria mixture 3; +500 ppm guanidine carbonate (328 ppm guanidine) pH 9.1, 3. inoculation", "value": "2 (Light growth, maximum 100 colonies)"},
      {"measurement": "Bacteria growth after inoculation", "setting": "bacteria mixture 3; [1]", "value": 0},
      {"measurement": "Bacteria growth after inoculation", "setting": "bacteria mixture 3; [2]", "value": 0},
      {"measurement": "Bacteria growth after inoculation", "setting": "bacteria mixture 3; [3]", "value": "1 (Minimal growth, 1 to 10 colonies visible over the entire streak)"},
      {"measurement": "Bacteria growth after inoculation", "setting": "bacteria mixture 3; +2500 ppm guanidine carbonate (1640 ppm guanidine) pH 10.0, 1. inoculation", "value": 0},
      {"measurement": "Bacteria growth after inoculation", "setting": "bacteria mixture 3; +2500 ppm guanidine carbonate (1640 ppm guanidine) pH 10.0, 2. inoculation", "value": 0},
      {"measurement": "Bacteria growth after inoculation", "setting": "bacteria mixture 3; +2500 ppm guanidine carbonate (1640 ppm guanidine) pH 10.0, 3. inoculation", "value": 0},
      {"measurement": "Bacteria growth after inoculation", "setting": "bacteria mixture 3; +5000 ppm guanidine carbonate (3280 ppm guanidine) pH 10.5, 1. inoculation", "value": 0},
      {"measurement": "Bacteria growth after inoculation", "setting": "bacteria mixture 3; +5000 ppm guanidine carbonate (3280 ppm guanidine) pH 10.5, 2. inoculation", "value": 0},
      {"measurement": "Bacteria growth after inoculation", "setting": "bacteria mixture 3; +5000 ppm guanidine carbonate (3280 ppm guanidine) pH 10.5, 3. inoculation", "value": 0},
      {"measurement": "stability of the all-purpose cleaner to microbial infestation by bacteria", "setting": "bacteria mixture 3; addition of 330 ppm of guanidine in the form of guanidine carbonate at pH 9.1", "value": "distinct improvement in stability"}
    ]}
  ]
}
